Experiments:
Assay in all cases: KinomeScan competition binding assay
[1] = molecular target: T1, IRAK1 (Homo sapiens, UniProt P51617); conditions: 10 μM compound
T1 construct: purchased KinomeScan, a division of Ambit Biosciences
Procedure, shortened: (§1)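 qPCR read-out of DNA tag; DNA-tagged kinase + immobilized ATP-site ligand + test compound. Competition binding expressed as % of control (POC) or Kd.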

[2] = molecular target: T2, CIT (Homo sapiens, UniProt O14578); conditions: 10 μM compound
T2 construct: purchased KinomeScan, a division of Ambit Biosciences
Procedure, shortened: as §1

[3] = molecular target: T3, CDK8 (Homo sapiens, UniProt P49336); conditions: for inhibition of CDK8: 10 μM; for POC ligand binding, CDK8: 10 μM compound; for Kd: read-out: CDK8 inhibition (Kd)
T3 construct: purchased KinomeScan, a division of Ambit Biosciences
Procedure, shortened: as §1

[4] = molecular target: T4, CLK2 (Homo sapiens, UniProt P49760); conditions: 10 μM compound
T4 construct: purchased KinomeScan, a division of Ambit Biosciences
Procedure, shortened: as §1

[5] = molecular target: T5, HIPK2 (Homo sapiens, UniProt Q9H2X6); conditions: 10 μM compound
T5 construct: purchased KinomeScan, a division of Ambit Biosciences
Procedure, shortened: as §1

[6] = molecular target: T6, CLK1 (Homo sapiens, UniProt P49759); conditions: 10 μM compound
T6 construct: purchased KinomeScan, a division of Ambit Biosciences
Procedure, shortened: as §1

[7] = molecular target: T7, SLK (Homo sapiens, UniProt Q9H2G2); conditions: 10 μM compound
T7 construct: purchased KinomeScan, a division of Ambit Biosciences
Procedure, shortened: as §1

[8] = molecular target: T8, STK16 (Homo sapiens, UniProt O75716); conditions: 10 μM compound
T8 construct: purchased KinomeScan, a division of Ambit Biosciences
Procedure, shortened: as §1

[9] = molecular target: T9, PIK3CA (I800L) (Homo sapiens, UniProt P42336, I800L); conditions: 10 μM compound
T9 construct: purchased KinomeScan, a division of Ambit Biosciences
Procedure, shortened: as §1

[10] = molecular target: T10, FLT3 (D835Y) (Homo sapiens, UniProt P36888, D835Y); conditions: 10 μM compound
T10 construct: purchased KinomeScan, a division of Ambit Biosciences
T10 sequence (P36888 27-993 D835Y): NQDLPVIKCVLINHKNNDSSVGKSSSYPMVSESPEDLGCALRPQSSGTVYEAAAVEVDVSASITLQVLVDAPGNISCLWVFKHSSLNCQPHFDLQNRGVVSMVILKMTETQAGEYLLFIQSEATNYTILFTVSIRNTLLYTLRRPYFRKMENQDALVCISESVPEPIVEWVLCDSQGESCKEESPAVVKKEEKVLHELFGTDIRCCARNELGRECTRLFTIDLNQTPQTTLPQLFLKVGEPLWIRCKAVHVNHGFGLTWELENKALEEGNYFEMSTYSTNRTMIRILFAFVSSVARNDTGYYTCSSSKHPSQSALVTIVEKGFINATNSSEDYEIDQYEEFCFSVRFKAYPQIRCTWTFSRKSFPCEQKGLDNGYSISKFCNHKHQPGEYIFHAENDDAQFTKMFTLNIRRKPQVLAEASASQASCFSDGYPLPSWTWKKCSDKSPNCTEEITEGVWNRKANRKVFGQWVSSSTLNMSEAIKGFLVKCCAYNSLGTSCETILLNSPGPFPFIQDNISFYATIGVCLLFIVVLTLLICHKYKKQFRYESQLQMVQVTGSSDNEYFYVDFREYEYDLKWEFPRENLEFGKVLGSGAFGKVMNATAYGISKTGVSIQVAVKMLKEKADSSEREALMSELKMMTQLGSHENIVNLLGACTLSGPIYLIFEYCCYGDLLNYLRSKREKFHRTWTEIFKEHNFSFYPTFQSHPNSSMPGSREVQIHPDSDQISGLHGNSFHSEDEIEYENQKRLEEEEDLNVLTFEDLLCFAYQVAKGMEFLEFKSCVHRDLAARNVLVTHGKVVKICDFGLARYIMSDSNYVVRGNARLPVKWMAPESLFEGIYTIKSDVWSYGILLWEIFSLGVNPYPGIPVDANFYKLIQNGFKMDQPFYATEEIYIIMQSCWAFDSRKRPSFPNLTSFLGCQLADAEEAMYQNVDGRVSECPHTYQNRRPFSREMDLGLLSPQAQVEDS
Procedure, shortened: as §1

[11] = molecular target: T11, MEK5 (Homo sapiens, UniProt Q13163); conditions: 10 μM compound
T11 construct: purchased KinomeScan, a division of Ambit Biosciences
T11 sequence (Q13163 1-448): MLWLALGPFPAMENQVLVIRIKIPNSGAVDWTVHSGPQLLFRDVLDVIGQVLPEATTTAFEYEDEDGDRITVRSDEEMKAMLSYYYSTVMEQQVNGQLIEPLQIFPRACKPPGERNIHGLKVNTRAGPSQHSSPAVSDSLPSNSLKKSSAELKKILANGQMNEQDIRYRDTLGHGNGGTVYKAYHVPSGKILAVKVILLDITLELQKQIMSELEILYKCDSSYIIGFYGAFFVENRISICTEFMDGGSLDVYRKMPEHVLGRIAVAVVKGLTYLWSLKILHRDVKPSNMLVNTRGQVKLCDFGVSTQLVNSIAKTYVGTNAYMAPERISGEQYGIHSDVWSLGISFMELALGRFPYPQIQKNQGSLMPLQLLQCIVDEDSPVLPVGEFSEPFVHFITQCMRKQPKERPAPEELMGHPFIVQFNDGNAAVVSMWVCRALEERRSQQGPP
Procedure, shortened: as §1

[12] = molecular target: T12, PIK3CG (Homo sapiens, UniProt P48736); conditions: 10 μM compound
T12 construct: purchased KinomeScan, a division of Ambit Biosciences
Procedure, shortened: as §1

[13] = molecular target: T13, CSNK1G3 (Homo sapiens, UniProt Q9Y6M4); conditions: 10 μM compound
T13 construct: purchased KinomeScan, a division of Ambit Biosciences
Procedure, shortened: as §1

T9 sequence (P42336 whole entry I800L): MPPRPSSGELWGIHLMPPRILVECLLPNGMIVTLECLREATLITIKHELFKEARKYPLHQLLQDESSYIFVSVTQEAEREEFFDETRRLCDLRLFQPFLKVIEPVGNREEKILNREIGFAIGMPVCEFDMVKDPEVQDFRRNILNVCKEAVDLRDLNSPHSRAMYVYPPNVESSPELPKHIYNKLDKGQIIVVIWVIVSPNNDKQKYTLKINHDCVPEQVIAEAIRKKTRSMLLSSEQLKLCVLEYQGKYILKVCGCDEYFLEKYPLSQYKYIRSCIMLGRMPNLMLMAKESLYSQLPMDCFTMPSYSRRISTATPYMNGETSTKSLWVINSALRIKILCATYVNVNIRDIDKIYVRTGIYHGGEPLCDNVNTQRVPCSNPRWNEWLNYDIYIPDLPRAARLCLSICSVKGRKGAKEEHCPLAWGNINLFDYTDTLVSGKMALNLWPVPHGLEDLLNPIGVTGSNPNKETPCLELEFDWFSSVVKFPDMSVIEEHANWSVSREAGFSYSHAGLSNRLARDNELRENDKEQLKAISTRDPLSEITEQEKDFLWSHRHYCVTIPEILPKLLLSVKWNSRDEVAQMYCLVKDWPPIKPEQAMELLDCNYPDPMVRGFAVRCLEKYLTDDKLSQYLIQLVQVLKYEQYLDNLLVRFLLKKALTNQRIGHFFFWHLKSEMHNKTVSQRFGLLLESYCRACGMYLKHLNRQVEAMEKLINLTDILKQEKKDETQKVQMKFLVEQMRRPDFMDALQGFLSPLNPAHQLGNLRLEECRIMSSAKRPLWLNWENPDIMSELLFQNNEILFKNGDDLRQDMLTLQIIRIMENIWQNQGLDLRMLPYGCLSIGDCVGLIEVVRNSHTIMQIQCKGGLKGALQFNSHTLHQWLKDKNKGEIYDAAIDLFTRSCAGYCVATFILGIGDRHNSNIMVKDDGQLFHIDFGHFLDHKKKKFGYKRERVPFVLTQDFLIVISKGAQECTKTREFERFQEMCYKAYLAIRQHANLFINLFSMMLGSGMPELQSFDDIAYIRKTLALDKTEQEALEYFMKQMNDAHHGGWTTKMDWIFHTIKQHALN
T8 sequence (O75716 whole entry): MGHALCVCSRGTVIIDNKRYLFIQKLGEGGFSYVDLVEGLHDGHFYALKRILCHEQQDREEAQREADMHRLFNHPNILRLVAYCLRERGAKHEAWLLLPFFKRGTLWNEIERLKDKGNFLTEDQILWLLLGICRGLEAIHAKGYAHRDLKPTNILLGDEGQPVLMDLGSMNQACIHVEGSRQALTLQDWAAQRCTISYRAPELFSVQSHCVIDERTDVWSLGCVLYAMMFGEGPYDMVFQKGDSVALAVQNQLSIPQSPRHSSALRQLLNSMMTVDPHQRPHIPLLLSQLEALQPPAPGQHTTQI
T7 sequence (Q9H2G2 whole entry): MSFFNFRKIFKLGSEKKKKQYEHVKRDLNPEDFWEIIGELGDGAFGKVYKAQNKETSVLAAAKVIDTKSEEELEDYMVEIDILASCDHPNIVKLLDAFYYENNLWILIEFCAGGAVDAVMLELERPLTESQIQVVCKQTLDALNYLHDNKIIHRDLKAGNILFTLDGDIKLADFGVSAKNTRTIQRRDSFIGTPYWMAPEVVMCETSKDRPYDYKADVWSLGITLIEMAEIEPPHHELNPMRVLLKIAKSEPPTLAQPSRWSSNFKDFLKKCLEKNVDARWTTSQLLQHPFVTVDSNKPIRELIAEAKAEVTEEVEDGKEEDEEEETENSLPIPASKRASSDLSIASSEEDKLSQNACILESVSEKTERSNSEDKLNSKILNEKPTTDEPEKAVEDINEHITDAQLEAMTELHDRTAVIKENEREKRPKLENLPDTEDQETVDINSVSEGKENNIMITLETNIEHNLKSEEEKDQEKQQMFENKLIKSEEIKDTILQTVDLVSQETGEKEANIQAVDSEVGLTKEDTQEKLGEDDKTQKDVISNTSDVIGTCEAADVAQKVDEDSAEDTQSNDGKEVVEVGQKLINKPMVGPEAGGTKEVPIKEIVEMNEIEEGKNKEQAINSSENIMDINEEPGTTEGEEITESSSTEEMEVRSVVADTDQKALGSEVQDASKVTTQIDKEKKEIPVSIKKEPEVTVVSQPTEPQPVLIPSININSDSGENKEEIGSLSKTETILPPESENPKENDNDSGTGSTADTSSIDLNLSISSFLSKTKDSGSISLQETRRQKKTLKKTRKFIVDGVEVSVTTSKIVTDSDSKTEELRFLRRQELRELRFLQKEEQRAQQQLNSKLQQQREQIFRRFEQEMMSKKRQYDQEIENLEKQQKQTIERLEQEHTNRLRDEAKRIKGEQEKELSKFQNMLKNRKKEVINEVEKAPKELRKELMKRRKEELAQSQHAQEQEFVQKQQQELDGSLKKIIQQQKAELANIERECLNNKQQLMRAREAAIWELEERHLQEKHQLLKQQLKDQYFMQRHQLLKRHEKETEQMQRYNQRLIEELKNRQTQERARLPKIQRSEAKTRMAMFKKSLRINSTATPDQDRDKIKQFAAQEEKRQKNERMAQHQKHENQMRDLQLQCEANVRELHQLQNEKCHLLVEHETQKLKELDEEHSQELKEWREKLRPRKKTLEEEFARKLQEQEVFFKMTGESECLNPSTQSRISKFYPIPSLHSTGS
T13 sequence (Q9Y6M4 whole entry): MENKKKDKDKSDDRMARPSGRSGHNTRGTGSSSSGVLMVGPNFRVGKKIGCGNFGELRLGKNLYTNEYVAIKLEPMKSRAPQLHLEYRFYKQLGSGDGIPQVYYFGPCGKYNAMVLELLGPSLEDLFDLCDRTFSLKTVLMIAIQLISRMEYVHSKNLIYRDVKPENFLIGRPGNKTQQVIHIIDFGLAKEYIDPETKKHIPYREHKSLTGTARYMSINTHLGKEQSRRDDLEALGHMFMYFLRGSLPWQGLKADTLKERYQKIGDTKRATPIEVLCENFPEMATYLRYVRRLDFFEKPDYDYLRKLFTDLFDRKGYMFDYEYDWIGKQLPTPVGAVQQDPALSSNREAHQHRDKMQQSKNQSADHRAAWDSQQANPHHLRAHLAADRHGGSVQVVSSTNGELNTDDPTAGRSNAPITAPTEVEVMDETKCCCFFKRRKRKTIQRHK
T3 sequence (P49336 whole entry): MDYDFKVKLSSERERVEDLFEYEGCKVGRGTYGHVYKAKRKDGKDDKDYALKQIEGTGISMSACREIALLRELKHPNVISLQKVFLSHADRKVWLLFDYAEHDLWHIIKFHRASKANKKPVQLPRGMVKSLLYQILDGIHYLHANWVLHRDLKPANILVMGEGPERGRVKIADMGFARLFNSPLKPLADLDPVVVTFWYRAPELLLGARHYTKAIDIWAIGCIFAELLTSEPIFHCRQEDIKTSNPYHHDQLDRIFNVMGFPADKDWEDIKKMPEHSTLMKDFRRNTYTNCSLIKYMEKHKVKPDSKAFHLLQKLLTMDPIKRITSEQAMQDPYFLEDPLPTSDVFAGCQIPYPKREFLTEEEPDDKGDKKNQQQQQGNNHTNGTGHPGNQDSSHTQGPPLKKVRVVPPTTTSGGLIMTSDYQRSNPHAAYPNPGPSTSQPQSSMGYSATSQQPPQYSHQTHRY
T6 sequence (P49759 whole entry): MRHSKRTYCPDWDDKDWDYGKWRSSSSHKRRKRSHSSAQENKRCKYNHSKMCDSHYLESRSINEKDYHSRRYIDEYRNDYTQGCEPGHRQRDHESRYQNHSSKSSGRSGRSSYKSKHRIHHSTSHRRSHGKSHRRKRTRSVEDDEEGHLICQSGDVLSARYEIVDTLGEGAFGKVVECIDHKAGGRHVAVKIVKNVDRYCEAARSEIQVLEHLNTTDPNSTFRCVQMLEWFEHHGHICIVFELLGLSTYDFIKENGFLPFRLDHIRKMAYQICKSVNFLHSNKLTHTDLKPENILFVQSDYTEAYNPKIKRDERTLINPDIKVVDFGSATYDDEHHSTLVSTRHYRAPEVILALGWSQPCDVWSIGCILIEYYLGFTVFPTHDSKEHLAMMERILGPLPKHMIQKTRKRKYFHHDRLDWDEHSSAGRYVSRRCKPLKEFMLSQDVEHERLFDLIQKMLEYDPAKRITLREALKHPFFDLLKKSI
T1 sequence (P51617 whole entry): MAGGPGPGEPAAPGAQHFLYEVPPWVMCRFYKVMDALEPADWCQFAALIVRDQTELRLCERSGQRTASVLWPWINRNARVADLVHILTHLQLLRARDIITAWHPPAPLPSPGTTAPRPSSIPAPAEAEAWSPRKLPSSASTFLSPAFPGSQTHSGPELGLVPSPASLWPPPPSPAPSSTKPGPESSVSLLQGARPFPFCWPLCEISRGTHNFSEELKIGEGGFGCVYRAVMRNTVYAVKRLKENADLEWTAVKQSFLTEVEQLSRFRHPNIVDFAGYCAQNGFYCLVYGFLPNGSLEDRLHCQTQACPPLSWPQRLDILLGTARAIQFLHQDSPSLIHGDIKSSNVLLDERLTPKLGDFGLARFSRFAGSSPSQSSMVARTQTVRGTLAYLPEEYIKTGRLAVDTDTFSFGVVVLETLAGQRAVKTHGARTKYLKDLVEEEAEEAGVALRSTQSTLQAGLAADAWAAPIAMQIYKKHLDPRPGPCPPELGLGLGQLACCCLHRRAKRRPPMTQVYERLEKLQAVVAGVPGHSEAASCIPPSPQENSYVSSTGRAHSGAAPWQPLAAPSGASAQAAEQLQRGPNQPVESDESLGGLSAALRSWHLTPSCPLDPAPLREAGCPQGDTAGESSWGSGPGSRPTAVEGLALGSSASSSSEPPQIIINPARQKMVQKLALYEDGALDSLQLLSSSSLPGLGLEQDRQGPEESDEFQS

Structure (SMILES)	POC ligand binding, IRAK1 [1]	POC ligand binding, CIT [2]	POC ligand binding, CDK8 [3]	Kd [3]	POC ligand binding, CLK2 [4]	POC ligand binding, HIPK2 [5]	POC ligand binding, CLK1 [6]	POC ligand binding, SLK [7]	POC ligand binding, STK16 [8]	POC ligand binding, PIK3CA (I800L) [9]	POC ligand binding, FLT3 (D835Y) [10]	POC ligand binding, MEK5 [11]	POC ligand binding, PIK3CG [12]	POC ligand binding, CSNK1G3 [13]	other results
N#Cc1ccc2ncnc(NCCc3ccc4ccccc4c3)c2c1 [compound 26]	89 POC	40 POC	0 POC	570 nM	58 POC	73 POC	32 POC	73 POC	16 POC	81 POC	55 POC	61 POC	58 POC	50 POC	inhibition of CDK8 [3]: ~100%
N#Cc1ccc2ncnc(NCc3ccc4ccccc4c3)c2c1 [compound 14]	–	–	–	2500 nM	–	–	–	–	–	–	–	–	35 POC	–	POC ligand binding, IRAK1 ([1]; 10 µM): 35 POC; POC ligand binding, CIT ([2]; 10 µM): 9.8 POC; POC ligand binding, CDK8 ([3]; 10 µM): 0.4 POC; POC ligand binding, CLK2 ([4]; 10 µM): 24 POC; POC ligand binding, HIPK2 ([5]; 10 µM): 34 POC; POC ligand binding, CLK1 ([6]; 10 µM): 18 POC; POC ligand binding, SLK ([7]; 10 µM): 90 POC; POC ligand binding, STK16 ([8]; 10 µM): 2.4 POC; POC ligand binding, PIK3CA (I800L) ([9]; 10 µM): 62 POC; POC ligand binding, FLT3 (D835Y) ([10]; 10 µM): 32 POC; POC ligand binding, MEK5 ([11]; 10 µM): 13 POC; POC ligand binding, CSNK1G3 ([13]; 10 µM): 52 POC
N#Cc1ccc2ncnc(NCc3ccc4ccccc4c3)c2c1 [compound 43]	–	–	–	240 nM	–	–	–	–	–	–	–	–	35 POC	–	POC ligand binding, IRAK1 ([1]; 10 µM): 7.6 POC; POC ligand binding, CIT ([2]; 10 µM): 14 POC; POC ligand binding, CDK8 ([3]; 10 µM): 1.6 POC; POC ligand binding, CLK2 ([4]; 10 µM): 9.6 POC; POC ligand binding, HIPK2 ([5]; 10 µM): 30 POC; POC ligand binding, CLK1 ([6]; 10 µM): 9 POC; POC ligand binding, SLK ([7]; 10 µM): 92 POC; POC ligand binding, STK16 ([8]; 10 µM): 30 POC; POC ligand binding, PIK3CA (I800L) ([9]; 10 µM): 87 POC; POC ligand binding, FLT3 (D835Y) ([10]; 10 µM): 76 POC; POC ligand binding, MEK5 ([11]; 10 µM): 41 POC; POC ligand binding, CSNK1G3 ([13]; 10 µM): 54 POC
CCCNc1ncnc2ccc(N3CCOCC3)cc12 [compound 46]	81 POC	86 POC	100 POC	–	66 POC	30 POC	48 POC	88 POC	80 POC	83 POC	19 POC	17 POC	94 POC	100 POC	–
N#Cc1ccc2ncnc(NCc3ccc(Cl)cc3)c2c1 [compound 20]	26 POC	7.9 POC	0.15 POC	240 nM	16 POC	28 POC	12 POC	61 POC	25 POC	73 POC	69 POC	62 POC	40 POC	82 POC	–
CC(C)CNc1ncnc2ccc(C(F)(F)F)cc12 [compound 45]	25 POC	50 POC	37 POC	–	8.6 POC	20 POC	8.4 POC	59 POC	17 POC	83 POC	4.7 POC	46 POC	82 POC	50 POC	–
COc1ccc2ncnc(NCCc3ccccc3)c2c1 [compound 44]	64 POC	18 POC	24 POC	–	34 POC	62 POC	17 POC	43 POC	70 POC	86 POC	55 POC	59 POC	88 POC	84 POC	–
N#Cc1ccc2ncnc(NCCc3ccccc3)c2c1 [compound 1]	8.2 POC	15 POC	–	830 nM	3.8 POC	18 POC	4.2 POC	11 POC	4.2 POC	17 POC	19 POC	18 POC	8 POC	16 POC	inhibition of CDK8 [3]: > 99%

— US8598344B2, “CDKI pathway inhibitors and uses thereof” (Senex Biotechnology, priority 2009, dated 2013)
